The source made the active and inactive calls.
How the values were obtained:
[1] = target: Adenosylmethionine-8-amino-7-oxononanoate aminotransferase (Mycobacterium tuberculosis, UniProt P9WQ81); assay: Mycobacterium tuberculosis BioA enzyme inhibitor Measured in Biochemical System Using Plate Reader - 2163-02_Inhibitor_Dose_CherryPick_Activity.; type: functional, Mycobacterium tuberculosis UT205
[2] = test system: Vero; assay: viability of Vero cells under compound – cytotoxicity control for flavivirus capping enzyme inhibitors (AID 588742); type: functional; conditions: Chlorocebus sabaeus
[3] = target: Genome polyprotein (dengue virus type 2, UniProt P29990); assay: flavivirus cap methylation enzyme inhibition – biochemical, confirmation dose response, primary screen (AID 588689); type: functional
[4] = target: T1, Tyrosyl-DNA phosphodiesterase 2 (Homo sapiens, UniProt O95551); assay: potency against TDP2 phosphodiesterase activity – biochemical, epi absorbance, IC50, dose response (AID 743297)
T1 sequence (O95551 whole entry): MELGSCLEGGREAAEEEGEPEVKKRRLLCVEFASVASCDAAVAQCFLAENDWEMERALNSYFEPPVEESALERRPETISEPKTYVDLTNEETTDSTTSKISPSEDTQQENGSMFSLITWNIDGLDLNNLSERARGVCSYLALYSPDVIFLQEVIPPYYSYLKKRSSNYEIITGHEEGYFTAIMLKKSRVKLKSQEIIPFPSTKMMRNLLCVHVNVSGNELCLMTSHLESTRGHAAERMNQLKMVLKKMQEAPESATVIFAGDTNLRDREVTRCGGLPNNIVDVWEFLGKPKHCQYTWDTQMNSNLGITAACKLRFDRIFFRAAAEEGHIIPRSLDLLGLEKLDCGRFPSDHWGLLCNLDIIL

[5] = target: T2, Hexokinase HKDC1 (Homo sapiens, UniProt Q2TB90); assay: inhibition of HKDC1 glucose phosphorylation – biochemical, W721R variant, dose response (AID 504729); type: functional
T2 sequence (Q2TB90 whole entry): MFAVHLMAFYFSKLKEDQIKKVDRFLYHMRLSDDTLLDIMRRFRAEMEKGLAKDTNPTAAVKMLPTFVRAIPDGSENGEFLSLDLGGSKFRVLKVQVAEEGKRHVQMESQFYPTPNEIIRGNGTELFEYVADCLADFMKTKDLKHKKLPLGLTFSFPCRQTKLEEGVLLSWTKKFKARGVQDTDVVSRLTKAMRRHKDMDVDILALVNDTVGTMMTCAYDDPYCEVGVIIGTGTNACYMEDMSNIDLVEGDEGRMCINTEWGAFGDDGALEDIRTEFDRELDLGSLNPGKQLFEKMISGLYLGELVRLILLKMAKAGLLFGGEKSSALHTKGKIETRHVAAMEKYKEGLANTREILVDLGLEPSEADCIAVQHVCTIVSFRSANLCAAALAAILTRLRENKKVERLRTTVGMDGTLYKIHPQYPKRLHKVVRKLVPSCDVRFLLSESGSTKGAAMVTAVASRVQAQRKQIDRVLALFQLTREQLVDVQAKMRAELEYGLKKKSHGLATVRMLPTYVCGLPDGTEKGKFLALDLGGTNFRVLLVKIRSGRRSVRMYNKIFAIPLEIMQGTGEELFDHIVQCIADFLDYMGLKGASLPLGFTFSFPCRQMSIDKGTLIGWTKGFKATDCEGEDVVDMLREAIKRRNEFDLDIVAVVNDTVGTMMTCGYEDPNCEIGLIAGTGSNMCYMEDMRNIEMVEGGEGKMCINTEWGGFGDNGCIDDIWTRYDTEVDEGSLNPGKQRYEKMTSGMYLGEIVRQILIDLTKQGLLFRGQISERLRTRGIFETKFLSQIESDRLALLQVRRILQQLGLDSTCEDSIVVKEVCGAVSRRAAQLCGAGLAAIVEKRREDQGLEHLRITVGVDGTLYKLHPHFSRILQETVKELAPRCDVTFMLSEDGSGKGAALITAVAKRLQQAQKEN

[6] = target: Phospholipase D2 (Homo sapiens, UniProt O14939); assay: cellular phospholipase D2 inhibition IC50 – cell-based, dose response (AID 602147); type: functional;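 also: cellular assay in HEK293 cells overexpressing GFP-tagged PLD2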
[7] = target: T3, Phospholipase D1 (Homo sapiens, UniProt Q13393); assay: cellular phospholipase D1 inhibition IC50 – cell-based, dose response (AID 602151); type: functional;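 also: cellular PLD1 assay in Calu-1 cells stimulated with PMA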
T3 sequence (Q13393 whole entry): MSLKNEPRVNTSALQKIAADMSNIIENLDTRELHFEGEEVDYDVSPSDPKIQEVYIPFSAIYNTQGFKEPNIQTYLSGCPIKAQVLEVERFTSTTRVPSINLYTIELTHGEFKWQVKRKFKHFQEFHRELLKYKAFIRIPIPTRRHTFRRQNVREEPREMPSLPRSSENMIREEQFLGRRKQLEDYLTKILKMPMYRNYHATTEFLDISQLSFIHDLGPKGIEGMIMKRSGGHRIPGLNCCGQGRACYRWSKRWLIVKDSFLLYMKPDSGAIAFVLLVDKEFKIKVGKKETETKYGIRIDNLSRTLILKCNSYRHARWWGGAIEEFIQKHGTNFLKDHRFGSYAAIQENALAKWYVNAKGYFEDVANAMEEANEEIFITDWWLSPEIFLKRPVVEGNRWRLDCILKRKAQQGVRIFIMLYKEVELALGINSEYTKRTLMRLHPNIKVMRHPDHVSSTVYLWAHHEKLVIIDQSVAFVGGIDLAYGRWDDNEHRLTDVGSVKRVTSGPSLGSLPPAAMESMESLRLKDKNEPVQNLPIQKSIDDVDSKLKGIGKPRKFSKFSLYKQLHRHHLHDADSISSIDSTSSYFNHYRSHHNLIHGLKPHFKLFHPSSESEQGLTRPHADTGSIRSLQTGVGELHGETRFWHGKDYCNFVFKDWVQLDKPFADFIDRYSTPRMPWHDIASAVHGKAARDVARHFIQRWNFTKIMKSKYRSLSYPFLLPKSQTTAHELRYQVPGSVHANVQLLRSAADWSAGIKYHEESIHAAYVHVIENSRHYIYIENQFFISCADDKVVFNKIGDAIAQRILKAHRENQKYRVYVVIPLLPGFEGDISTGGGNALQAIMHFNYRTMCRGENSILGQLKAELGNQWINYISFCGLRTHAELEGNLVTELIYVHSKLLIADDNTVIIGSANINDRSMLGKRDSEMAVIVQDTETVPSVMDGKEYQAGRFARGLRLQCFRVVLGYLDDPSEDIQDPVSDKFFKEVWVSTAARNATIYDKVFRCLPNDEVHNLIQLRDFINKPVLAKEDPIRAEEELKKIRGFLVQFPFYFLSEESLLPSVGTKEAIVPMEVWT

[8] = inhibition of ARNT PAS-B/TACC3 complex formation – biochemical, AlphaScreen, cherry-picked samples, confirmation (AID 651703); type: functional, Homo sapiens;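 also: His-tagged ARNT PAS-B domain paired with GST-TACC3 E629A dimer coactivator fragment; potency of inhibitors that break up the complex and lower AlphaScreen signal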
[9] = viability of HCT116 lacking mutant beta-catenin – cell-based, human colon tumor, dose response (AID 1045); type: functional;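 also: HCT116 colon tumor cells with beta catenin knocked out; cells exposed to compound for 60 hours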
[10] = cells; type: functional
[11] = viability of PTEN-deleted HCT116 cells – cell-based, HCT116 PTEN knockout, dose response (AID 1047); type: functional;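 also: HCT116 colon tumor cells with PTEN knocked out; cells exposed to compound for 60 hours before readout; potency for loss of cell viability measured by luminescence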
[12] = target: Beta-galactosidase (Escherichia coli, UniProt Q8VNN2); assay: PubChem AID 485352; type: functional
[13] = target: T4, Type-1 angiotensin II receptor (Homo sapiens, UniProt P30556); assay: antagonism of angiotensin II type 1 receptor – cell-based, uHTS hits, selectivity assay for APJ receptor antagonist project, dose response (AID 463214); type: functional;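 also: antagonist potency against angiotensin II stimulated AT1 response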
T4 sequence (P30556 whole entry): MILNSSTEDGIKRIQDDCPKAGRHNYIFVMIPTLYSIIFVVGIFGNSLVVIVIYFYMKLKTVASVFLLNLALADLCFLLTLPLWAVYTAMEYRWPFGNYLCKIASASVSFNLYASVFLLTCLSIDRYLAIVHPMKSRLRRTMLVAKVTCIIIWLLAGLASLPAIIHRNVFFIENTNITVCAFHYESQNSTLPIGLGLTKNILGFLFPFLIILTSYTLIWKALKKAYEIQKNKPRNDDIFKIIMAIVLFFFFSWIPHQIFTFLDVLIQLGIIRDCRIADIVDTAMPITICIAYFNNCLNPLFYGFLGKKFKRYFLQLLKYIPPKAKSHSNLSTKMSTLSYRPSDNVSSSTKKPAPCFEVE

[14] = THP-1 cell cytotoxicity, dose response, cytotoxicity control for non-replicating M. tuberculosis project (AID 489025); type: functional
[15] = Vero E6 cell cytotoxicity, dose response, cytotoxicity control for non-replicating M. tuberculosis project, secondary assay (AID 492998); type: functional, VeroE6; conditions: Vero C1008
[16] = bead-based luminescence quenchers, dual-tagged ARNT – biochemical, AlphaScreen, cherry-pick, artefact control for ARNT-TACC3 interaction inhibitor project, dose response (AID 651705); type: functional;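 also: AlphaScreen bead proximity signal that flags compounds interfering with the detection technology; potency reflects signal decrease which marks the compound as an assay artifact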
[17] = target: Tyrosine-protein phosphatase non-receptor type 11 (Homo sapiens, UniProt Q06124); assay: PTPN11 enzyme inhibitors – biochemical, selectivity assay for STEP inhibitor project, dose response (AID 602367); type: functional; conditions: read-out: IC50_Mean
[18] = target: Tyrosine-protein phosphatase non-receptor type 5 (Homo sapiens, UniProt P54829); assay: PTPN5 enzyme inhibition – biochemical, fluorescence intensity, uHTS hits, confirmation (AID 602372); type: functional; conditions: read-out: IC50_Mean
[19] = target: Dual specificity protein phosphatase 3 (Homo sapiens, UniProt P51452); assay: VHR phosphatase inhibition, dose response, selectivity assay for STEP inhibitor project, biochemical (AID 602374); type: functional; conditions: read-out: IC50_Mean
[20] = target: DNA (cytosine-5)-methyltransferase 1 (Homo sapiens, UniProt P26358); assay: inhibition of DNA methylation by DNMT1 – biochemical, fluorescent molecular beacon, confirmation (AID 602386); type: functional
[21] = viability loss in THP-1 monocytes – THP-1 cells, cytotoxicity control for Vif-APOBEC3G degradation inhibitor project, dose response (AID 1117359); type: functional; conditions: THP-1
[22] = target: T5, Rac GTPase-activating protein 1 (Homo sapiens, UniProt Q9H0H5); assay: blockers of MgcRacGAP-driven Rac1 GTP hydrolysis – biochemical, ADP Hunter fluorescence, primary and confirmatory, confirmation (AID 624330); type: functional
T5 sequence (Q9H0H5 whole entry): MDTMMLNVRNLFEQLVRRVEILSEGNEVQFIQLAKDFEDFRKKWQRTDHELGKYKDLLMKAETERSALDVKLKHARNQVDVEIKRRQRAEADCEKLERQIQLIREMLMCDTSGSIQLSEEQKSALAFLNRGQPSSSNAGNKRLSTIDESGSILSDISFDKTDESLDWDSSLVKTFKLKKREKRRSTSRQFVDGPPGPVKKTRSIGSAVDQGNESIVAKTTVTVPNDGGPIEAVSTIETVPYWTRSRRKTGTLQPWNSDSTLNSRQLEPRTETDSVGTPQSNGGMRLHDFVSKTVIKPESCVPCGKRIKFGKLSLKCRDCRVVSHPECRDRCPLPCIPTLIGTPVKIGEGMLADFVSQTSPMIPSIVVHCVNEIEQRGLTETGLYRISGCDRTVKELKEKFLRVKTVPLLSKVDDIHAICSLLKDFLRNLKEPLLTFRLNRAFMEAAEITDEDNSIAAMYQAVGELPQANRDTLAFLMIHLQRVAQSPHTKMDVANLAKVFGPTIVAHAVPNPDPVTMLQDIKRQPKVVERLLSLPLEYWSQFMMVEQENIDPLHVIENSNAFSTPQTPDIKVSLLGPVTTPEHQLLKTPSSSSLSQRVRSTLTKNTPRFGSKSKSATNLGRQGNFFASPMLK

[23] = test system: INS1; assay: INS-1E survival protection against cytokine death – cell-based, luminescence, retest, dose response (AID 449756); type: functional; conditions: Rattus norvegicus;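 also: cell death triggered by IL-1 beta plus TNF-alpha plus IFN-gamma mixture; protective hits raise ATP signal compared with cytokine alone wells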
[24] = test system: Streptococcus; assay: GAS UMAA2166 growth inhibition – luminescence, BacTiterGlo, counter-screen for streptokinase expression inhibitor project, dose response (AID 1915); type: functional, organism-based;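 also: potency for reduction of bacterial viability or growth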
[25] = test system: Streptococcus sp. 'group A'; assay: Streptococcus pyogenes SK(-)GAS viability under kanamycin – luminescence, BacTiterGlo, confirmation, counter-screen for streptokinase expression inhibitor project, dose response (AID 1900); type: functional, organism-based

Phospholipase D2, sequence (O14939 whole entry): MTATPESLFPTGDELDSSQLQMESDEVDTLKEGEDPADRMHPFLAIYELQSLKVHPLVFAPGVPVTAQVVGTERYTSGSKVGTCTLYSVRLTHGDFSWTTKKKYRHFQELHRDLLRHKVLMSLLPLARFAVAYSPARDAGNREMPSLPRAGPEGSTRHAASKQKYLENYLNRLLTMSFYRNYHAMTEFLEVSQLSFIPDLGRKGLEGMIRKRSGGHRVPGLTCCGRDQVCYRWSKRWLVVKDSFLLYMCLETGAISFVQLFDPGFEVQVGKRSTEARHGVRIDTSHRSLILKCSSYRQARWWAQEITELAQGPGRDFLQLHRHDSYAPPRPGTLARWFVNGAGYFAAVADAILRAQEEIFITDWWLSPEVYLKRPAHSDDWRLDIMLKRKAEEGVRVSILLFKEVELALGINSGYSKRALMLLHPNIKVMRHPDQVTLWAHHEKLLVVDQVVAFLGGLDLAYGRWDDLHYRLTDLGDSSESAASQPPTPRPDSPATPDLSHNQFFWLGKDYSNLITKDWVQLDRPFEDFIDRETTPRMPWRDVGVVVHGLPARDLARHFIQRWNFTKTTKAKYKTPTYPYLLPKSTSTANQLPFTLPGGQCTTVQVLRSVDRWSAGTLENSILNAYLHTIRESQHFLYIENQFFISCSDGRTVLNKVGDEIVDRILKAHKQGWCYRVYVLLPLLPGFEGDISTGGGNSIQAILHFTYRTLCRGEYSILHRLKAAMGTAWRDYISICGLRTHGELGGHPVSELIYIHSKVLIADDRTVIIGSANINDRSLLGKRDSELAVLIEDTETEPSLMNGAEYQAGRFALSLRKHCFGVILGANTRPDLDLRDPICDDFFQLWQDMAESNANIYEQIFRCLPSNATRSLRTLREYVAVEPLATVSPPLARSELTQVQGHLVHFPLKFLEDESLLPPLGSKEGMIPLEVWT
Adenosylmethionine-8-amino-7-oxononanoate aminotransferase, sequence (P9WQ81 whole entry): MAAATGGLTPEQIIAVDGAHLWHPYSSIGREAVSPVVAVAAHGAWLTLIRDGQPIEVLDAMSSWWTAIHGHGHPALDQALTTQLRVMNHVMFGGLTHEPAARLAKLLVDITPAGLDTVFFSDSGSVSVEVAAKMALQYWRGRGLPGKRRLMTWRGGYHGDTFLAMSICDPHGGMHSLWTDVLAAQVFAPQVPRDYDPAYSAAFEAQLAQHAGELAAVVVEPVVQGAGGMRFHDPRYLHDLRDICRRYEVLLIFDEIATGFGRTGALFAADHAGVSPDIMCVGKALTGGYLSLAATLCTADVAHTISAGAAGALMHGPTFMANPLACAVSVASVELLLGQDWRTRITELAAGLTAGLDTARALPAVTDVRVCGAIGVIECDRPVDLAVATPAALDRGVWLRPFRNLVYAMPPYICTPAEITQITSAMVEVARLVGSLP
Tyrosine-protein phosphatase non-receptor type 11, sequence (Q06124 whole entry): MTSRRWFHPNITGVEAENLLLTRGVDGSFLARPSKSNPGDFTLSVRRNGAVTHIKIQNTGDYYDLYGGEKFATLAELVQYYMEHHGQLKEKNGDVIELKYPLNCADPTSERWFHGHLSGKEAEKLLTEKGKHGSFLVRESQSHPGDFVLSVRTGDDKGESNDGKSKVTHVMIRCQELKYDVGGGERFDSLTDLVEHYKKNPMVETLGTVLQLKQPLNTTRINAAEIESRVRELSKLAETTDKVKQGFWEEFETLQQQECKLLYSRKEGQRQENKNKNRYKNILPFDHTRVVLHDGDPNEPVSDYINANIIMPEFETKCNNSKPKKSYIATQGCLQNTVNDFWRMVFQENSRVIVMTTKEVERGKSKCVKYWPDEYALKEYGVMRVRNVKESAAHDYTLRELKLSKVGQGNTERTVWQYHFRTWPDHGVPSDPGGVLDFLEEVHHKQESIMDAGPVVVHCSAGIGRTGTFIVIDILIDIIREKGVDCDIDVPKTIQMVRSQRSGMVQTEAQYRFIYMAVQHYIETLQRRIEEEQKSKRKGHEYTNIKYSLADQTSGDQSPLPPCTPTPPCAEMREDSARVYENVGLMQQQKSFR
Dual specificity protein phosphatase 3, sequence (P51452 whole entry): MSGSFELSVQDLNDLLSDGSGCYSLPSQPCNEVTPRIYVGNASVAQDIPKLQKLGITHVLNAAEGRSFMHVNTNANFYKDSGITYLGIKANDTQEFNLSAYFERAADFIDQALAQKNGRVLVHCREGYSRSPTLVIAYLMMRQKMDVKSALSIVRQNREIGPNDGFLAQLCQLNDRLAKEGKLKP
Beta-galactosidase, sequence (Q8VNN2 whole entry): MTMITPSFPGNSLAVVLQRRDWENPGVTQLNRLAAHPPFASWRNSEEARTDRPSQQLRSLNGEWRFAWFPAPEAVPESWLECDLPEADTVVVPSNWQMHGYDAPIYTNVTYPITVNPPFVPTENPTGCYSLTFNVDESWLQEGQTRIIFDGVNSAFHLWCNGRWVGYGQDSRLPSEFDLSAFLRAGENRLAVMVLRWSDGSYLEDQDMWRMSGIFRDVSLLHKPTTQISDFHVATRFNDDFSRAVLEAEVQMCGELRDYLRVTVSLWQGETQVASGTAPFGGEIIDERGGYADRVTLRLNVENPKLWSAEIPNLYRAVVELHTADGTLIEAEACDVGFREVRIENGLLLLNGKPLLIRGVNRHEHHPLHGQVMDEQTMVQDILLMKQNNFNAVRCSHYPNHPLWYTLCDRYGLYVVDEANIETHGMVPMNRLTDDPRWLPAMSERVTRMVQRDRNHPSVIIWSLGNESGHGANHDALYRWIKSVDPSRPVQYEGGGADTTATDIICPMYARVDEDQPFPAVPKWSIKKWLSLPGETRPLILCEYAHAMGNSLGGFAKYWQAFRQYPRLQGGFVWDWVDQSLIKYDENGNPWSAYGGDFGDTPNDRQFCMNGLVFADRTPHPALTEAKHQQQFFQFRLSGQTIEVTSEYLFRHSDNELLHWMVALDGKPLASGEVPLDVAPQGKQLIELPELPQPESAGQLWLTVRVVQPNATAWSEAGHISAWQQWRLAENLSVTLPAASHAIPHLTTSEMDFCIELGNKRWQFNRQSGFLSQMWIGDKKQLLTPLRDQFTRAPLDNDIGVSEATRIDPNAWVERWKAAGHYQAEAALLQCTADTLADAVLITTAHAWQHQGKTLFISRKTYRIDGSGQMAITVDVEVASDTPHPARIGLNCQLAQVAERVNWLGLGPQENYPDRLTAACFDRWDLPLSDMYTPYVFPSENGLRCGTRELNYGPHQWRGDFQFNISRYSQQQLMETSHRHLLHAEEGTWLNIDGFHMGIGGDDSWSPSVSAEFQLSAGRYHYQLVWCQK
DNA (cytosine-5)-methyltransferase 1, sequence (P26358 whole entry): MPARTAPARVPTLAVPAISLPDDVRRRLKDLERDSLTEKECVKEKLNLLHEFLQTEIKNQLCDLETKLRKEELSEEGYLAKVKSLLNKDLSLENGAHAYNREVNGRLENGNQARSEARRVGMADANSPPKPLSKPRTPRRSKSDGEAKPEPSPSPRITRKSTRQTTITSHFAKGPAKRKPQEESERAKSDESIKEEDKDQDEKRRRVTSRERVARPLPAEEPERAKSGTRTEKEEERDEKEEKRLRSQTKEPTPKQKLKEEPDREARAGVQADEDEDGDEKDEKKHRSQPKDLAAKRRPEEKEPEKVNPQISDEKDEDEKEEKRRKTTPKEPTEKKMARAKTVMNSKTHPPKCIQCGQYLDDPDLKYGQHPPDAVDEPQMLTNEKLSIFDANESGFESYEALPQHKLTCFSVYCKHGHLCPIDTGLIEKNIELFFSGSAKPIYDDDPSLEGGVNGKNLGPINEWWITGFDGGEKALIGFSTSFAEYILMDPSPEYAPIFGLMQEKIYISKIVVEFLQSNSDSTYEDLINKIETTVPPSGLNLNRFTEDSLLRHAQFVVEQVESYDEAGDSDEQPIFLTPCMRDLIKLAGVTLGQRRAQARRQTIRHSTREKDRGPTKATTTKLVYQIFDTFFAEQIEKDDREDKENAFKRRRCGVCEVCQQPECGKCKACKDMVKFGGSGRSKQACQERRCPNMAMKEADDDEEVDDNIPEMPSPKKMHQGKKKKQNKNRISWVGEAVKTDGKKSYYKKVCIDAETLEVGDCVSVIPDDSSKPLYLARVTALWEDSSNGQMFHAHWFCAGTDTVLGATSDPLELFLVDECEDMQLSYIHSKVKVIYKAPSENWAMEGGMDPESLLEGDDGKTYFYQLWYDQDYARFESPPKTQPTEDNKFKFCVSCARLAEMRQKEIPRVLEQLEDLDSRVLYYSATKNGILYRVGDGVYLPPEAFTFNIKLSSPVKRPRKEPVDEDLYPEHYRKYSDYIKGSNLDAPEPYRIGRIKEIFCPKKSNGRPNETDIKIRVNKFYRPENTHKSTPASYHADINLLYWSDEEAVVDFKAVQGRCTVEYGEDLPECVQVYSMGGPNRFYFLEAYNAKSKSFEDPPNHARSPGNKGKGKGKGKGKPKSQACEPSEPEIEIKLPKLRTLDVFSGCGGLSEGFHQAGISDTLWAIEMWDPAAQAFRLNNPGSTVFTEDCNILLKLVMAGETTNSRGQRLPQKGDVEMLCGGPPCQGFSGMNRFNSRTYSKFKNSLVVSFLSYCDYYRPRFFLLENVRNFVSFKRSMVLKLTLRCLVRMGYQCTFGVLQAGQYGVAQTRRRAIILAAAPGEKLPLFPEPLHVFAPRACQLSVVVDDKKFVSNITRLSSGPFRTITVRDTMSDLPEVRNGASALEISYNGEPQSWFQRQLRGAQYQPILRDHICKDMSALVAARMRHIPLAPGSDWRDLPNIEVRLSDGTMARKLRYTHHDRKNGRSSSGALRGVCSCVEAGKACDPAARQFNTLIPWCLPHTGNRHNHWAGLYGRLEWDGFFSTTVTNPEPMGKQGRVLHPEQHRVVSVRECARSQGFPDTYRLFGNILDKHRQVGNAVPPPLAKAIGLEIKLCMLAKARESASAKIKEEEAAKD

Cc1cccc(-c2nnc(SCC#N)n2-c2ccccc2)c1
AC50 [1]: 3.22 µM (active)

Cc1ccc(-n2c3nc(=O)[nH]c(=O)c-3cc3cc([N+](=O)[O-])ccc32)cc1
CC50 [2]: > 40 µM (active) | IC50 [3]: 22.9 µM (active) | IC50 [4]: > 128 µM (inactive) | IC50 [5]: 10.3 µM (active)

O=C(NCCN1CCC2(CC1)C(=O)NCN2c1cccc(Br)c1)c1ccc2ccccc2c1
IC50 [6]: 0.68 µM (active) | IC50 [7]: 4.6 µM (active)

CCOc1ccc(-c2cnc(N)n2C)cc1
AC50 [8]: 93.9 µM (active)

O=C1c2cccc3c([N+](=O)[O-])ccc(c23)C(=O)N1c1ccc(Cl)cn1
EC50 [9]: 0.905 µM (active) | IC50 [10]: 8.7 µM (active) | EC50 [11]: 1.58 µM (active) | EC50 [12]: > 40 µM (inactive) | IC50 [13]: 15.5 µM (active) | CC50 [14]: 1.34 µM (active) | CC50 [15]: 10.1 µM (active)

O=C(CSc1ccc2nnc(-c3ccccn3)n2n1)NCc1ccco1
AC50 [16]: 99 µM (active)

CC(C)n1c(N2CCN(C(=O)c3cccs3)CC2)nc2ccccc21
AC50 [1]: 10.6 µM (active)

O=C(NCCN1CCC(n2c(=O)[nH]c3ccccc32)CC1)NCc1cccc(F)c1
IC50 [6]: 1.8 µM (active) | IC50 [7]: 0.107 µM (active)

COc1ccccc1Nc1ccc([N+](=O)[O-])cc1N
IC50 [17]: 8.01 µM (active) | IC50 [18]: 34.5 µM (inactive) | IC50 [19]: 3.2 µM (active)

COc1cc(/C=C/C=C2/CC/C(=C/C=C/c3ccc(O)c(OC)c3)C2=O)ccc1O
IC50 [20]: 8.22 µM (active) | CC50 [21]: 24.1 µM (active) | IC50 [22]: 99.4 µM (active)

O=C1C(Cl)=C(Nc2ccc3c[nH]nc3c2)C(=O)c2ccccc21
CC50 [2]: 9.81 µM (active) | AC50 [23]: 3.56 µM (active) | CC50 [21]: 2.49 µM (active) | EC50 [24]: 15.1 µM (active) | EC50 [25]: 0.928 µM (active)

O=C(c1ccc(Cl)cc1)N(CCN1CCC(n2c(=O)[nH]c3ccccc32)CC1)C(=O)c1ccc(Cl)cc1
IC50 [6]: 2.7 µM (active) | IC50 [7]: 0.21 µM (active)

— ChEMBL document CHEMBL1201862, “PubChem BioAssay data set” (2004)
